Where a name gives a salt, the structure may show the parent alone.
Columns and labels:
NLRP3 [1] = target: T1, NLRP3 (Homo sapiens, UniProt Q96P20); assay: THP-1 cells pyroptosis assay (LPS + nigericin, resazurin readout; THP IC50); assay type: cell-based; parameters: Seed THP-1 cells (25,000 cells/well) containing 1.0 μg/ml LPS in 40 μl of RPMI medium; host or cells: THP-1 cells
How it was run: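 Human THP-1 cells, 25,000/well in serum-free RPMI with 1 μg/ml LPS, treated 3 hrs at 37° C with compound (8-point half-log, 10 μM top, 0.1% DMSO), then 5 μM nigericin 1 hr. Viability by 100 μM resazurin fluorescence after 1-2 hrs; IC50 by 4-parameter fit.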

NLRP3 [2] = target: T1, NLRP3; assay: Human whole blood IL1β release assay (LPS + nigericin, AlphaLisa IL-1β; HWB IC50); assay type: cell-based; parameters: Human whole blood in Li-heparin tubes was obtained from healthy donors from a volunteer donor panel; from tissue; host or cells: human whole blood from healthy donors; conditions: IL-1β release
How it was run: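 Donor Li-heparin whole blood primed with 1 μg/ml LPS, given compound (8-point half-log series, 10 μM top; DMSO 0.1% final) for 3 h at 37 °C, then nigericin 10 μM final for 1 h. Supernatant IL-1β measured by AlphaLisa; IC50 from 4-parameter variable-slope fit.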

T1 sequence (Q96P20 whole entry): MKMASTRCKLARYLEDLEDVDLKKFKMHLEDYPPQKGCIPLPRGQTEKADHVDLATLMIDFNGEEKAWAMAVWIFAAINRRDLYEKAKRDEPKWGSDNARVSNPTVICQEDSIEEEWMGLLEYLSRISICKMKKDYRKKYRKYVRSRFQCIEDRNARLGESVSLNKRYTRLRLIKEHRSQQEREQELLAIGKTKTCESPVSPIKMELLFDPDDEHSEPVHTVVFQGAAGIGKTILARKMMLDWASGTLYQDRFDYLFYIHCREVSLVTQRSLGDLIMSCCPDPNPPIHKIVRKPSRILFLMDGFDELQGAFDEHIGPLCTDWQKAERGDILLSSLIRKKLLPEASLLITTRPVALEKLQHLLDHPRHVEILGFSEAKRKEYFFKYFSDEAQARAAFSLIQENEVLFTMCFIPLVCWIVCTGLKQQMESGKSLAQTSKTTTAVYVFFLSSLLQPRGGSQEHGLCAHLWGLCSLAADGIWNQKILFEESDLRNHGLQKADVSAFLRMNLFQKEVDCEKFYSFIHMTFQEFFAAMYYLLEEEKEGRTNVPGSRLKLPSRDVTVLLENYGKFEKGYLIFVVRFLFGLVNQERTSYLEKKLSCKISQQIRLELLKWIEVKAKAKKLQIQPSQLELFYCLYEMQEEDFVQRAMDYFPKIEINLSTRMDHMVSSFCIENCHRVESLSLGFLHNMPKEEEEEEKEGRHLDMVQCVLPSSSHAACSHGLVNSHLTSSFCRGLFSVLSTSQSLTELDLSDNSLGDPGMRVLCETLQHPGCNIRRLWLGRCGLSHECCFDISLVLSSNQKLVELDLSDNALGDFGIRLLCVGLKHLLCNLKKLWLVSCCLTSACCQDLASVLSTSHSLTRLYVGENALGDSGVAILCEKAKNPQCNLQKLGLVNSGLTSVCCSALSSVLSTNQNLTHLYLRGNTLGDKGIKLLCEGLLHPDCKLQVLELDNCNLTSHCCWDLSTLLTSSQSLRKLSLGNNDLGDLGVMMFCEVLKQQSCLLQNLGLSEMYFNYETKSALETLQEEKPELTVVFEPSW

| Compound | IC50 (NLRP3 [1]) | IC50 (NLRP3 [2]) |
| --- | --- | --- |
| CC(C)n1ccc(S(=O)(=O)NC(=O)Nc2c(-c3ccnc(OC4CCOC4)c3)ccc3c2CCC3)n1 (centres unmarked) [Example 291, 1-Isopropyl-N-((5-(2-((tetrahydrofuran-3-yl)oxy)pyridin-4-yl)-2,3-dihydro-1H-inden-4-yl)carbamoyl)-1H-pyrazole-3-sulfonamide, sodium salt] | ≤ 500 nM | ≤ 1000 nM |
| CC(C)n1ccc(S(=O)(=O)NC(=O)Nc2c(-c3ccnc(OC4CCOCC4)c3)ccc3c2CCC3)n1 [Example 292, 1-Isopropyl-N-((5-(2-((tetrahydro-2H-pyran-4-yl)oxy)pyridin-4-yl)-2,3-dihydro-1H-inden-4-yl)carbamoyl)-1H-pyrazole-3-sulfonamide, sodium salt] | ≤ 500 nM | ≤ 1000 nM |
| COc1cc(-c2ccc3c(c2NC(=O)NS(=O)(=O)c2coc(C4CC4)n2)CCC3)ccn1 [Example 293, 2-Cyclopropyl-N-((5-(2-methoxypyridin-4-yl)-2,3-dihydro-1H-inden-4-yl)carbamoyl)oxazole-4-sulfonamide, sodium salt] | ≤ 500 nM | ≤ 5000 nM |
| CC(C)n1ccc(S(=O)(=O)NC(=O)Nc2c(-c3ccnc(OC4CCC4)c3)ccc3c2CCC3)n1 [Example 294, N-((5-(2-Cyclobutoxypyridin-4-yl)-2,3-dihydro-1H-inden-4-yl)carbamoyl)-1-isopropyl-1H-pyrazole-3-sulfonamide, sodium salt] | ≤ 500 nM | ≤ 5000 nM |
| CC(C)n1ccc(S(=O)(=O)NC(=O)Nc2c(-c3ccnc(C4CC4)c3)ccc3c2CCC3)n1 [Example 295, N-((5-(2-Cyclopropylpyridin-4-yl)-2,3-dihydro-1H-inden-4-yl)carbamoyl)-1-isopropyl-1H-pyrazole-3-sulfonamide, sodium salt] | ≤ 500 nM | ≤ 1000 nM |
| COCc1cc(-c2ccc3c(c2NC(=O)NS(=O)(=O)c2ccn(C(C)C)n2)CCC3)ccn1 [Example 296, 1-Isopropyl-N-((5-(2-(methoxymethyl)pyridin-4-yl)-2,3-dihydro-1H-inden-4-yl)carbamoyl)-1H-pyrazole-3-sulfonamide, sodium salt] | ≤ 500 nM | ≤ 500 nM |
| CC(C)n1ccc(S(=O)(=O)NC(=O)Nc2c(-c3ccnc(CO)c3)ccc3c2CCC3)n1 [Example 298, N-((5-(2-(Hydroxymethyl)pyridin-4-yl)-2,3-dihydro-1H-inden-4-yl)carbamoyl)-1-isopropyl-1H-pyrazole-3-sulfonamide] | ≤ 500 nM | ≤ 1000 nM |
| CC(C)n1ccc(S(=O)(=O)NC(=O)Nc2c(-c3ccnc(OCCO)c3)ccc3c2CCC3)n1 [Example 299, N-((5-(2-(2-Hydroxyethoxy)pyridin-4-yl)-2,3-dihydro-1H-inden-4-yl)carbamoyl)-1-isopropyl-1H-pyrazole-3-sulfonamide] | ≤ 500 nM | ≤ 500 nM |
| COCCOc1cc(-c2ccc3c(c2NC(=O)NS(=O)(=O)c2ccn(C(C)C)n2)CCC3)ccn1 [Example 300, 1-Isopropyl-N-((5-(2-(2-methoxyethoxy)pyridin-4-yl)-2,3-dihydro-1H-inden-4-yl)carbamoyl)-1H-pyrazole-3-sulfonamide, sodium salt] | ≤ 500 nM | ≤ 1000 nM |
| O=C(Nc1c(-c2ccncc2)ccc2c1CCC2)NS(=O)(=O)c1ccn(C2CC2)n1 [Example 303, 1-Cyclopropyl-N-((5-(pyridin-4-yl)-2,3-dihydro-1H-inden-4-yl)carbamoyl)-1H-pyrazole-3-sulfonamide] | ≤ 500 nM | ≤ 500 nM |
| O=C(Nc1c(-c2ccncc2)ccc2c1CCC2)NS(=O)(=O)c1ccn(C2CCC2)n1 [Example 304, 1-Cyclobutyl-N-((5-(pyridin-4-yl)-2,3-dihydro-1H-inden-4-yl)carbamoyl)-1H-pyrazole-3-sulfonamide] | ≤ 500 nM | ≤ 500 nM |
| COc1cc(-c2ccc3c(c2NC(=O)NS(=O)(=O)c2nn(C4CC4)cc2F)CCC3)ccn1 [Example 305, 1-Cyclopropyl-4-fluoro-N-((5-(2-methoxypyridin-4-yl)-2,3-dihydro-1H-inden-4-yl)carbamoyl)-1H-pyrazole-3-sulfonamide] | ≤ 500 nM | ≤ 500 nM |
| COc1cc(-c2ccc3c(c2NC(=O)NS(=O)(=O)c2ccn(C(C)(C)CN4CC(F)(F)C4)n2)CCC3)ccn1 [Example 306, 1-(1-(3,3-Difluoroazetidin-1-yl)-2-methylpropan-2-yl)-N-((5-(2-methoxypyridin-4-yl)-2,3-dihydro-1H-inden-4-yl)carbamoyl)-1H-pyrazole-3-sulfonamide] | ≤ 500 nM | ≤ 500 nM |
| COc1cc(-c2ccc3c(c2NC(=O)NS(=O)(=O)c2ccn(C(C)(C)CN4CC(F)C4)n2)CCO3)ccn1 [Example 307, 1-(1-(3-Fluoroazetidin-1-yl)-2-methylpropan-2-yl)-N-((5-(2-methoxypyridin-4-yl)-2,3-dihydrobenzofuran-4-yl)carbamoyl)-1H-pyrazole-3-sulfonamide] | ≤ 500 nM | ≤ 500 nM |
| COc1cc(-c2ccc3c(c2NC(=O)NS(=O)(=O)c2ccc(C(=O)N(C)C)cc2)CCC3)ccn1 [Example 308, 4-(N-((5-(2Mmethoxypyridin-4-yl)-2,3-dihydro-1H-inden-4-yl)carbamoyl)sulfamoyl)-N,N-dimethylbenzamide, sodium salt] | ≤ 500 nM | ≤ 1000 nM |
| [2H]C([2H])([2H])Oc1cc(-c2ccc3c(c2NC(=O)NS(=O)(=O)c2ccc(CN(C)C)cc2)CCC3)ccn1 [Example 310, 4-((Dimethylamino)methyl)-N-((5-(2-(methoxy-d3)pyridin-4-yl)-2,3-dihydro-1H-inden-4-yl)carbamoyl)benzenesulfonamide] | ≤ 500 nM | ≤ 500 nM |
| COc1cc(-c2ccc3c(c2NC(=O)NS(=O)(=O)c2ccc(CN(C)C)cc2)CCO3)ccn1 [Example 311, 4-((Dimethylamino)methyl)-N-((5-(2-methoxypyridin-4-yl)-2,3-dihydrobenzofuran-4-yl)carbamoyl)benzenesulfonamide] | ≤ 500 nM | ≤ 500 nM |
| COc1cc(-c2ccc3c(c2NC(=O)NS(=O)(=O)c2ccn(C4(CN5CCC5)CCC4)n2)CCC3)ccn1 [Example 312, 1-(1-(Azetidin-1-ylmethyl)cyclobutyl)-N-((5-(2-methoxypyridin-4-yl)-2,3-dihydro-1H-inden-4-yl)carbamoyl)-1H-pyrazole-3-sulfonamide] | ≤ 500 nM | ≤ 500 nM |
| COc1cc(-c2ccc3c(c2NC(=O)NS(=O)(=O)c2ccc(CN(C)C)c(C4CC4)c2)CCC3)ccn1 [Example 313, 3-Cyclopropyl-4-((dimethylamino)methyl)-N-((5-(2-methoxypyridin-4-yl)-2,3-dihydro-1H-inden-4-yl)carbamoyl)benzenesulfonamide] | ≤ 500 nM | ≤ 500 nM |
| COc1cc(-c2c(C)cc3c(c2NC(=O)NS(=O)(=O)c2ccn(C4CC4)n2)CCC3)ccn1 [Example 314, 1-Cyclopropyl-N-((5-(2-methoxypyridin-4-yl)-6-methyl-2,3-dihydro-1H-inden-4-yl)carbamoyl)-1H-pyrazole-3-sulfonamide] | ≤ 500 nM | ≤ 1000 nM |
| CN1CCC(N(C)S(=O)(=O)NC(=O)Nc2c(-c3ccnc(C#N)c3)ccc3c2CCC3)C1 (centres unmarked) [Example 317, 3-(N-Methyl-N-(1-methylpyrrolidin-3-yl)sulfamoyl)-1-(5-(2-cyanopyridin-4-yl)-2,3-dihydro-1H-inden-4-yl)urea] | ≤ 500 nM | ≤ 500 nM |
| CN1CCC2CN(S(=O)(=O)NC(=O)Nc3c(-c4ccnc(C#N)c4)ccc4c3CCC4)CC21 (centres unmarked) [Example 318, N-((5-(2-Cyanopyridin-4-yl)-2,3-dihydro-1H-inden-4-yl)carbamoyl)-1-methylhexahydropyrrolo[3,4-b]pyrrole-5(1H)-sulfonamide] | ≤ 1000 nM | ≤ 500 nM |
| COc1cc(-c2ccc3c(c2NC(=O)NS(=O)(=O)N2CC4CCN(C)C4C2)CCC3)ccn1 (centres unmarked) [Example 320, N-((5-(2-Methoxypyridin-4-yl)-2,3-dihydro-1H-inden-4-yl)carbamoyl)-1-methylhexahydropyrrolo[3,4-b]pyrrole-5(1H)-sulfonamide, potassium salt] | ≤ 500 nM | ≤ 500 nM |
| CN1CCCC1CN(C)S(=O)(=O)NC(=O)Nc1c(-c2ccnc(C#N)c2)ccc2c1CCC2 (centres unmarked) [Example 321, 3-(N-Methyl-N-((1-methylpyrrolidin-2-yl)methyl)sulfamoyl)-1-(5-(2-cyanopyridin-4-yl)-2,3-dihydro-1H-inden-4-yl)urea] | ≤ 1000 nM | ≤ 500 nM |
| CC(C)(O)c1coc(S(=O)(=O)NC(=O)Nc2c3c(nn2-c2ccncc2)CCC3)c1 [Example 323, 4-(2-Hydroxypropan-2-yl)-N-((2-(pyridin-4-yl)-2,4,5,6-tetrahydrocyclopenta[c]pyrazol-3-yl)carbamoyl)furan-2-sulfonamide] | ≤ 5000 nM | ≤ 500 nM |
